Columns and labels:
tyrosine kinase = test: Tyrosine kinase inhibitory activity assay (self-made ELISA kit); assay type: biochemical; conditions: for IC50: tyrosine kinase tissue extract, 37 °C 30 min; for tyrosine kinase inhibitory activity, in words: Indo 5 as reference
Protocol: The 16 designed compounds were first evaluated for tyrosine kinase inhibitory activity using ELISA assay. Indo 5 was used as a reference compound. The kit was self-made and is a very effective and economical method for preliminary tyrosine kinase inhibitory activity evaluation.
The tyrosine kinase inhibitory activity assay was performed as described in the literature. Details of the experimental procedures are presented in Supplementary Materials associated with this article. The IC50 was calculated using GraphPad Prism Software (GraphPad Prism 5, La Jolla, CA, USA). For each concentration, at least three wells were performed to calculate the average parameter.
100μL to each well. The plate was covered with its lid, and incubated at 4℃ overnight (10-12 hours). Then it was washed with 200μL elution buffer once, and dried at 37℃ for 2 h. After that, it was washed with 10mM PBS once, dried at room temperature, and then stored at 4℃ […]
2.1.5. Groups: Blank control: 60μL 1×tyrosine kinase buffer + 50μL 1×tyrosine kinase buffer containing ATP; Negative control: 10μL 1×tyrosine kinase buffer + 50μL 1×tyrosine kinase buffer containing tissue extract + 50μL 1×tyrosine kinase buffer containing ATP; Positive control: 10μL 1×tyrosine kinase buffer containing L029 + 50μL 1×tyrosine kinase buffer containing tissue extract + 50μL 1×tyrosine kinase buffer containing ATP; Vehicle control: 10μL 1×tyrosine kinase buffer containing DMSO + 50μL 1×tyrosine kinase buffer containing tissue extract + 50μL 1×tyrosine kinase buffer containing ATP; Compounds to be screened: 10μL 1×tyrosine kinase buffer containing compounds to be tested + 50μL 1× tyrosine kinase buffer containing tissue extract + 50μL 1×tyrosine kinase buffer containing ATP. (First, L029 and the compounds were allowed to interact with the tyrosine kinase tissue extract at room temperature for 10 min in advance, and did the same to the Blank control and the Vehicle control, then 50μL 1×tyrosine kinase buffer containing ATP was added to […]
2.1.6. Tyrosine kinase inhibitory activity assay: 1×tyrosine kinase buffer was prepared by evenly mixing 1 mL 10× tyrosine kinase buffer with 9 mL DDW. The tissue extract was diluted with 1×tyrosine kinase buffer appropriately, mixed with it gently and evenly, and placed on ice. ATP stock solution was mixed with 1×tyrosine kinase buffer at the final concentration of 3mM , and placed on ice. The microplate was added in respective wells with the groups formulated as above, covered with the lid, and incubated at 37℃ for 30 min. The microplate was washed with 200μL elution buffer and tapped until the residual buffer was removed, and this procedure was repeated for five times. To each well, 100μL antibody diluent (antibody elution buffer diluted at a ratio of 1:2000) was added. The microplate was covered with the lid, and incubated at room temperature for 30 min. OPD solution was prepared by addition of 4 mg OPD into a mixture of 4.86 mL 0.1 mol/L citric acid solution and 5.14 mL 0.2 mol/L Na2HPO4 solution, followed by addition of 50μL 30% H202 to allow for complete dissolution, and then was protected from light. The antibody solution was […]
removed. The microplate was washed with 200μL elution buffer and tapped until the residual buffer was removed, and this procedure was repeated for five times. 100μL freshly prepared OPD was added, and reacted at room temperature light tight for precisely 7 min. Negative […]
100μL 2.5 N H2SO4 was added to terminate the reaction. OD
2.1.7. Sample screening: Samples were screened preliminarily by using triplicate assay. The effect of the samples on tyrosine kinase inhibitory activity was tested, and the inhibition rate was calculated. Inhibition rate (%)=(ODnegative control – ODsample) / (ODnegative control* – ODblank) × 100%; *While calculating inhibition rate of positive drugs, ODnegative control in the equation was replaced with ODvehicle control to exclude the influence of DMSO on tyrosine kinase activity. […]
2. S. Praveen Kumar, Jiri Gut, Rita C. […]

[1] = test system: human cervical carcinoma cell line HeLa; test: MTS cytotoxicity assay, HeLa; assay type: cell-based; conditions: for IC50: 48 h treatment; for activity against the HeLa cell line, in words: Indo 5 as reference
Source text: (§1) To investigate the relationship between anticancer activity and tyrosine kinase inhibitory activity, these compounds were further evaluated for in vitro cytotoxicity against five cancer cell lines (human cervical carcinoma cell line HeLa, human breast carcinoma cell line MCF-7, human liver carcinoma cell line HepG2, human tongue carcinoma cell line SCC-15, and human lung carcinoma A549) using MTS assay. Indo 5 was also used as a reference compound.
(§2) The five types of human cancer cell lines (HeLa, HepG2, MCF-7, SCC-15, and A549) were cultured aseptically using Dulbecco’s modified Eagle’s medium (DMEM) supplemented with 10% (v/v) fetal bovine serum (FBS) and penicillin (100 units mL^−1)/streptomycin ([…]), at pH 7.2 and 5% CO2 humidified atmosphere at 37 °C. After attaining 80% confluence, the cells were trypsinized with 0.25 trypsin–EDTA and diluted with media to a fixed number of cells.
(§3) Cytotoxic activity was assessed using the standard MTS method by using triplicate assay. The cells were seeded into 96-well plates containing the medium at the density of 4000–6000 cells/mL (100 μL/well). The compounds were dissolved in DMSO to the concentration of 100 mM and diluted in a culture medium to the concentrations needed. After 24 h, the cultured cells were treated with concentrations of synthesized compounds (3.125 μM to 100 μM for tumor cells) for 48 h. After 48 h of incubation, the supernatant was replaced by fresh medium (100 μL/well) and 10 μL MTS reagent ([3-(4,5-dimethylthiazol-2-yl)-5-(3-carboxymethoxyphenyl)-2-(4-sulfophenyl)-2H-tetrazolium, inner salt]) was added to each well. The plate was further incubated for 3 h at 37 °C in 5% CO2. The optical absorbance in individual wells was determined at 492 nm using a microplate reader. The inhibition rates were calculated by the following formula: Inhibition rate (%) = (ODnegative control − ODsample)/(ODnegative control − ODblank) × 100%
(§4) IC50 was calculated using GraphPad Prism Software (GraphPad Prism 5, La Jolla, CA, USA). For each concentration, at least three wells were performed to calculate the average parameter.

[2] = test system: human breast carcinoma cell line MCF-7; test: MTS cytotoxicity assay, MCF-7; assay type: cell-based
Source text: as §1, §2, §3, §4

[3] = test system: human liver carcinoma cell line HepG2; test: MTS cytotoxicity assay, HepG2; assay type: cell-based
Source text: as §1, §2, §3, §4

[4] = test system: human tongue carcinoma cell line SCC-15; test: MTS cytotoxicity assay, SCC-15; assay type: cell-based
Source text: as §1, §2, §3, §4

[5] = test system: human lung carcinoma A549; test: MTS cytotoxicity assay, A549; assay type: cell-based
Source text: as §1, §2, §3, §4

[6] = Homo sapiens, MCF7, 48 h treatment
[7] = Homo sapiens, HepG2, 48 h treatment
[8] = Homo sapiens, SCC-15, 48 h treatment
[9] = Homo sapiens, A549, 48 h treatment

Structure (SMILES) | IC50 (tyrosine kinase) [µM] | IC50 ([1]; Homo sapiens, HeLa) [µM] | activity against the HeLa cell line, in words [1] | activity against the MCF-7 cell line, in words [2] | IC50 [2, 6] [µM] | IC50 [3, 7] [µM] | IC50 [4, 8] [µM] | IC50 [5, 9] [µM] | melting point [°C] | activity against the HepG2 cell line, in words [3] | tyrosine kinase inhibitory activity, in words (tyrosine kinase) | IC50 [1] [µM] | IC50 ([2]; 48 h treatment) [µM] | IC50 ([3]; 48 h treatment) [µM] | IC50 ([4]; 48 h treatment) [µM] | IC50 ([5]; 48 h treatment) [µM]
O=C1Nc2ccccc2/C1=C/[S+]([O-])Cc1ccccc1 (stereo not drawn) [Compound 6a, (Z)-3-((Benzylsulfinyl)methylene)indolin-2-one] | 3.16 ± 0.31 | 11.2 ± 0.42 | stronger activity than Indo 5 | good antitumor activity | 35.2 ± 1.16 | 52.1 ± 0.94 | 58.9 ± 0.75 | > 100 | 191 to 192 | – | – | – | – | – | – | –
O=C1Nc2ccccc2/C1=C/[S+]([O-])Cc1ccccc1F (stereo not drawn) [Compound 6b, (Z)-3-(((2-Fluorobenzyl)sulfinyl)methylene)indolin-2-one] | 3.74 ± 0.19 | 14 ± 0.27 | stronger activity than Indo 5 | – | 49.1 ± 1.08 | 47.8 ± 1.47 | > 100 | > 100 | 183 to 184 | – | – | – | – | – | – | –
O=C1Nc2ccccc2/C1=C/[S+]([O-])Cc1cccc(F)c1 (stereo not drawn) [Compound 6c, (Z)-3-(((3-Fluorobenzyl)sulfinyl)methylene)indolin-2-one] | 9.32 ± 0.66 | 24.4 ± 0.54 | – | good antitumor activity | 31.5 ± 0.82 | 42 ± 0.7 | 49.9 ± 0.93 | > 100 | 186 to 187 | – | – | – | – | – | – | –
O=C1Nc2ccccc2/C1=C/[S+]([O-])Cc1ccc(F)cc1 (stereo not drawn) [Compound 6d, (Z)-3-(((4-Fluorobenzyl)sulfinyl)methylene)indolin-2-one] | 9.3 ± 0.47 | 25 ± 0.68 | – | – | 49.12 ± 0.29 | 36.2 ± 0.53 | 65 ± 1.47 | 90.3 ± 2.14 | 193 to 194 | considerable cytotoxic activity | – | – | – | – | – | –
O=C1Nc2ccccc2/C1=C/[S+]([O-])Cc1ccccc1Cl (stereo not drawn) [Compound 6e, (Z)-3-(((2-Chlorobenzyl)sulfinyl)methylene)indolin-2-one] | 5.09 ± 0.12 | 70.9 ± 1.17 | – | – | > 100 | 96.83 ± 0.95 | > 100 | > 100 | 202 to 203 | – | – | – | – | – | – | –
O=C1Nc2ccccc2/C1=C/[S+]([O-])Cc1cccc(Cl)c1 (stereo not drawn) [Compound 6f, (Z)-3-(((3-Chlorobenzyl)sulfinyl)methylene)indolin-2-one] | 5.96 ± 0.14 | 60.3 ± 1.98 | – | – | 93 ± 1.5 | 86.5 ± 1.15 | 96.8 ± 3.76 | > 100 | 192 to 194 | – | – | – | – | – | – | –
O=C1Nc2ccccc2/C1=C/[S+]([O-])Cc1ccc(Cl)cc1 (stereo not drawn) [Compound 6g, (Z)-3-(((4-Chlorobenzyl)sulfinyl)methylene)indolin-2-one] | 3.3 ± 0.03 | 40.9 ± 0.88 | – | – | 92.6 ± 0.97 | 75.35 ± 0.72 | > 100 | > 100 | 193 to 195 | – | – | – | – | – | – | –
O=C1Nc2ccccc2/C1=C/[S+]([O-])Cc1ccccc1Br (stereo not drawn) [Compound 6h, (Z)-3-(((2-Bromobenzyl)sulfinyl)methylene)indolin-2-one] | 3.52 ± 0.15 | 79.9 ± 1.57 | – | – | > 100 | 98.3 ± 2.04 | > 100 | > 100 | 198 to 199 | – | – | – | – | – | – | –
O=C1Nc2ccccc2/C1=C/[S+]([O-])Cc1cccc(Br)c1 (stereo not drawn) [Compound 6i, (Z)-3-(((3-Bromobenzyl)sulfinyl)methylene)indolin-2-one] | 3.32 ± 0.19 | 48.42 ± 0.14 | – | – | 75.1 ± 1.93 | 71.8 ± 2.18 | 82.1 ± 3.34 | 64.9 ± 1.57 | 193 to 194 | – | – | – | – | – | – | –
COc1cccc(C[S+]([O-])/C=C2\C(=O)Nc3ccccc32)c1 (stereo not drawn) [Compound 6k, (Z)-3-(((3-Methoxybenzyl)sulfinyl)methylene)indolin-2-one] | 2.23 ± 0.14 | 22.7 ± 0.64 | – | – | 59.1 ± 37 | 49.4 ± 1.33 | 86.7 ± 5.16 | 62.3 ± 2 | 181 to 182 | – | – | – | – | – | – | –
Cc1ccccc1C[S+]([O-])/C=C1\C(=O)Nc2ccccc21 (stereo not drawn) [Compound 6l, (Z)-3-(((2-Methylbenzyl)sulfinyl)methylene)indolin-2-one] | 16.02 ± 0.05 | > 100 | – | – | 81.6 ± 2.62 | > 100 | > 100 | > 100 | 198 to 199 | – | weak tyrosine inhibitory activity | – | – | – | – | –
Cc1cccc(C[S+]([O-])/C=C2\C(=O)Nc3ccccc32)c1 (stereo not drawn) [Compound 6m, (Z)-3-(((3-Methylbenzyl)sulfinyl)methylene)indolin-2-one] | 3.85 ± 0.09 | 27 ± 1.2 | – | – | 41.4 ± 2.2 | 36 ± 2.13 | 50.3 ± 1.51 | 79.32 ± 0.79 | 174 to 175 | – | – | – | – | – | – | –
Cc1ccc(C[S+]([O-])/C=C2\C(=O)Nc3ccccc32)cc1 (stereo not drawn) [Compound 6n, (Z)-3-(((4-Methylbenzyl)sulfinyl)methylene)indolin-2-one] | 4.39 ± 0.23 | 27.8 ± 0.78 | – | – | 55.1 ± 1.51 | 59 ± 0.97 | 90.5 ± 2.32 | 59.6 ± 0.97 | 186 to 188 | – | – | – | – | – | – | –
O=C1Nc2ccc(Br)cc2/C1=C/[S+]([O-])Cc1ccccc1F (stereo not drawn) [Compound 6p, (Z)-5-Bromo-3-(((2-fluorobenzyl)sulfinyl)methylene)indolin-2-one] | 7.93 ± 0.2 | 19.8 ± 0.25 | – | – | 76.4 ± 1.5 | > 100 | > 100 | > 100 | 208 to 209 | – | weak tyrosine inhibitory activity | – | – | – | – | –
Cc1ccccc1NS(=O)(=O)c1ccc2c(c1)/C(=C/c1nc3ccccc3[nH]1)C(=O)N2 [Indo 5, reference compound] | 11.6 ± 0.79 | – | – | – | – | – | – | – | – | – | – | 19.6 ± 0.46 | 24.2 ± 0.49 | 22.2 ± 0.41 | 28.2 ± 1.08 | 29.16 ± 0.29

From publication PMC6150246, “Design, Synthesis and Preliminary Biological Evaluation of Novel Benzyl Sulfoxide 2-Indolinone Derivatives as Anticancer Agents” (Molecules : A Journal of Synthetic Chemistry and Natural …, 2017)
